Calls of active or inactive are those of the source. Rule as the data show it, for most assays here: active = IC50 of 5 µM or less and inactive = more. Where only a bound is given, the exact number is not on record here.

This note sets out measurements from ChEMBL document CHEMBL1201862, “PubChem BioAssay data set” (2004).

A short description of assay [1]: rise of 2N DNA cells, HeLa – IC50, dose response (AID 1117349). It counts as functional, cell-based.
A short description of assay [2]: IC50 of insulin release inhibition, rat insulinoma INS-1E line, 5 mM glucose, cell-based (AID 1117331). It is filed as functional.
A short description of assay [3]: cells. It is filed as functional, cell-based. Conditions: INS-1E.
A short description of assay [4]: rise of 4N DNA cells, HeLa – IC50, dose response (AID 1117351). It is filed as functional, cell-based.
A short description of assay [5]: CellTiter-Glo luminescence survival assay, SW480 colon tumor line, concentration-response curve, half-maximal inhibitory concentration (AID 1117338). It is filed as functional.
A short description of assay [6]: RKO cell viability reduction, dose response, CellTiter-Glo luminescence (AID 1117322). It counts as functional.
Assay [7] in a line: cytotoxicity toward HCT116 cells – cell-based, CellTiter-Glo luminescence, IC50, dose response (AID 1117332). It counts as functional. The conditions noted are these: HCT-116.
A short description of assay [8]: SNU-C1 cell viability reduction, dose response, CellTiter-Glo luminescence (AID 1117323). It counts as functional, cell-based.
The nature of assay [9]: cytotoxicity toward Colo320 cells – cell-based, CellTiter-Glo luminescence, IC50, dose response (AID 1117334). It is filed as functional. Conditions: COLO 320.
Assay [10] in a line: cytotoxicity toward HT-29 cells – cell-based, CellTiter-Glo luminescence, IC50, dose response (AID 1117330). It counts as functional.
A short description of assay [11]: Reduced DLD-1 viability, concentration-response, CellTiter-Glo luminescence (AID 1117352). It counts as functional.
The target of assay [12] is Protein Tat (Human immunodeficiency virus type 1 group M subtype B (isolate HXB2)(HIV-1), UniProt P04608). It is filed as functional.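 Also: tat binding to TAR RNA read out by fluorescence polarization.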
Protein Tat, sequence (P04608 whole entry): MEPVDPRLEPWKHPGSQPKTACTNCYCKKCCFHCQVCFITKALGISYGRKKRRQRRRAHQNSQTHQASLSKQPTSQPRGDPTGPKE

`CC(CC1c2ccccc2CCc2ccccc21)CN(C)C` (configuration not stated) [BUTRIPTYLINE]: the IC50 was > 10 µM (inactive) in assay [1], 3.64 µM (active) in [2], > 33.3 µM (inactive) in assay [3] and > 10 µM (inactive) in [4].
As to `CCCCCCOc1ccccc1C(N)=O` [EXALAMIDE], the IC50 was > 20 µM (inactive) in [5]; > 6.67 µM (inactive) in assay [6]; > 6.67 µM (inactive) in assay [7]; 9.36 µM (inactive) in assay [8]; > 20 µM (inactive) in assay [9]; > 20 µM (inactive) in assay [10]. Besides, the IC50 in [11] was 8.67 µM (inactive).
In the case of `COc1ccccc1NC(=O)CN(Cc1ccco1)C(=O)c1cccs1`, in assay [12], the IC50 is > 100 µM (inconclusive).
